Tests used:
Type in all cases: in vivo
Wheat [1] = assay: Preemergence Herbicidal Activity, Wheat; conditions: Triticum aestivum, pre-emergence; for plant injury at 1000 g/ha: 1.0 kg/ha
Method in brief: (§1)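 Percent control of the crop served as the read-out, with dosing stated in kilograms per hectare.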

Rice [2] = assay: Preemergence Herbicidal Activity, Rice; conditions: Oryza sativa, pre-emergence; for plant injury at 1000 g/ha: 1.0 kg/ha
Method in brief: as §1

Wheat [3] = assay: Postemergence Herbicidal Activity, Wheat; conditions: Triticum aestivum, post-emergence; for plant injury at 1000 g/ha: 1.0 kg/ha
Method in brief: as §1

Velvetleaf [4] = assay: Preemergence Herbicidal Activity, Velvetleaf; conditions: Abutilon theophrasti, pre-emergence; for pest or weed control at 1000 g/ha: 1.0 kg/ha
Method in brief: (§2)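 Read-out is percent control (% C) at application rates expressed in kilograms per hectare. Compounds were generally delivered in a 50/50 acetone/water solution, either before emergence or onto emerged plants.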

Cotton [5] = assay: Preemergence Herbicidal Activity, Cotton; conditions: Gossypium hirsutum, pre-emergence; for plant injury at 1000 g/ha: 1.0 kg/ha
Method in brief: as §2

Morningglory [6] = assay: Postemergence Herbicidal Activity, Morningglory; conditions: Ipomoea, post-emergence; for pest or weed control at 1000 g/ha: 1.0 kg/ha
Method in brief: as §2

Johnsongrass [7] = assay: Preemergence Herbicidal Activity, Johnsongrass; conditions: Sorghum halepense, pre-emergence; for pest or weed control at 1000 g/ha: 1.0 kg/ha
Method in brief: (§3)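 Application rate is expressed per hectare in kilograms. Values are percent control.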

Barnyardgrass [8] = assay: Postemergence Herbicidal Activity, Barnyardgrass; conditions: Echinochloa crus-galli, post-emergence; for pest or weed control at 1000 g/ha: 1.0 kg/ha
Method in brief: as §3

Soybean [9] = assay: Preemergence Herbicidal Activity, Soybean; conditions: Glycine max, pre-emergence; for plant injury at 1000 g/ha: 1.0 kg/ha
Method in brief: as §1

Rice [10] = assay: Postemergence Herbicidal Activity, Rice; conditions: Oryza sativa, post-emergence; for plant injury at 1000 g/ha: 1.0 kg/ha
Method in brief: as §1

Morningglory [11] = assay: Preemergence Herbicidal Activity, Morningglory; conditions: Ipomoea, pre-emergence; for pest or weed control at 1000 g/ha: 1.0 kg/ha
Method in brief: as §2

Green Foxtail [12] = assay: Postemergence Herbicidal Activity, Green Foxtail; conditions: Setaria viridis, post-emergence; for pest or weed control at 1000 g/ha: 1.0 kg/ha
Method in brief: as §3

Field Corn [13] = assay: Preemergence Herbicidal Activity, Field Corn; conditions: Zea mays, pre-emergence; for plant injury at 1000 g/ha: 1.0 kg/ha
Method in brief: as §1

Green Foxtail [14] = assay: Preemergence Herbicidal Activity, Green Foxtail; conditions: Setaria viridis, pre-emergence; for pest or weed control at 1000 g/ha: 1.0 kg/ha
Method in brief: as §3

Field Bindweed [15] = assay: Preemergence Herbicidal Activity, Field Bindweed; conditions: pre-emergence; for pest or weed control at 1000 g/ha: 1.0 kg/ha
Method in brief: as §2

Field Corn [16] = assay: Postemergence Herbicidal Activity, Field Corn; conditions: Zea mays, post-emergence; for plant injury at 1000 g/ha: 1.0 kg/ha
Method in brief: as §1

Soybean [17] = assay: Postemergence Herbicidal Activity, Soybean; conditions: Glycine max, post-emergence; for plant injury at 1000 g/ha: 1.0 kg/ha
Method in brief: as §1

Johnsongrass [18] = assay: Postemergence Herbicidal Activity, Johnsongrass; conditions: Sorghum halepense, post-emergence; for pest or weed control at 1000 g/ha: 1.0 kg/ha
Method in brief: as §3

Cotton [19] = assay: Postemergence Herbicidal Activity, Cotton; conditions: Gossypium hirsutum, post-emergence; for plant injury at 1000 g/ha: 1.0 kg/ha
Method in brief: as §2

Field Bindweed [20] = assay: Postemergence Herbicidal Activity, Field Bindweed; conditions: post-emergence; for pest or weed control at 1000 g/ha: 1.0 kg/ha
Method in brief: as §2

Barnyardgrass [21] = assay: Preemergence Herbicidal Activity, Barnyardgrass; conditions: Echinochloa crus-galli, pre-emergence; for pest or weed control at 1000 g/ha: 1.0 kg/ha
Method in brief: as §3

Velvetleaf [22] = assay: Postemergence Herbicidal Activity, Velvetleaf; conditions: Abutilon theophrasti, post-emergence; for pest or weed control at 1000 g/ha: 1.0 kg/ha
Method in brief: as §2

Compound: CS(=O)(=O)N(c1cc(-n2nnn(CCCF)c2=O)c(F)cc1Br)S(C)(=O)=O [Compound 10, 1-(4-bromo-2-fluoro-5-[bis(N--methylsulfonyl)amino]phenyl]-1,4-dihydro-4-(3-fluoropropyl)-5H--tetrazol-5-one]
- plant injury at 1000 g/ha (Wheat [1]): 90%
- plant injury at 1000 g/ha (Rice [2]): 95%
- plant injury at 1000 g/ha (Wheat [3]): 60%
- pest or weed control at 1000 g/ha (Velvetleaf [4]): 100%
- plant injury at 1000 g/ha (Cotton [5]): 100%
- pest or weed control at 1000 g/ha (Morningglory [6]): 100%
- pest or weed control at 1000 g/ha (Johnsongrass [7]): 95%
- pest or weed control at 1000 g/ha (Barnyardgrass [8]): 100%
- plant injury at 1000 g/ha (Soybean [9]): 80%
- plant injury at 1000 g/ha (Rice [10]): 30%
- pest or weed control at 1000 g/ha (Morningglory [11]): 100%
- pest or weed control at 1000 g/ha (Green Foxtail [12]): 100%
- plant injury at 1000 g/ha (Field Corn [13]): 95%
- pest or weed control at 1000 g/ha (Green Foxtail [14]): 100%
- pest or weed control at 1000 g/ha (Field Bindweed [15]): 100%
- plant injury at 1000 g/ha (Field Corn [16]): 90%
- plant injury at 1000 g/ha (Soybean [17]): 95%
- pest or weed control at 1000 g/ha (Johnsongrass [18]): 100%
- plant injury at 1000 g/ha (Cotton [19]): 100%
- pest or weed control at 1000 g/ha (Field Bindweed [20]): 100%
- pest or weed control at 1000 g/ha (Barnyardgrass [21]): 100%
- pest or weed control at 1000 g/ha (Velvetleaf [22]): 100%

Compound: CCS(=O)(=O)N(COC)c1cc(-n2nnn(CCCF)c2=O)c(F)cc1Cl [Compound 15, 1-[4-chloro-2-fluoro-5-[(N---ethylsulfonyl-N--methoxymethyl)amino]-phenyl]-1,4-dihydro-4-(3-fluoropropyl)-5H--tetrazol-5-one]
- plant injury at 500 g/ha (Wheat [1]; 0.5 kg/ha): 100%
- plant injury at 500 g/ha (Rice [2]; 0.5 kg/ha): 100%
- plant injury at 500 g/ha (Wheat [3]; 0.5 kg/ha): 100%
- pest or weed control at 500 g/ha (Velvetleaf [4]; 0.5 kg/ha): 100%
- plant injury at 500 g/ha (Cotton [5]; 0.5 kg/ha): 100%
- pest or weed control at 500 g/ha (Morningglory [6]; 0.5 kg/ha): 100%
- pest or weed control at 500 g/ha (Johnsongrass [7]; 0.5 kg/ha): 100%
- pest or weed control at 500 g/ha (Barnyardgrass [8]; 0.5 kg/ha): 80%
- plant injury at 500 g/ha (Soybean [9]; 0.5 kg/ha): 95%
- plant injury at 500 g/ha (Rice [10]; 0.5 kg/ha): 60%
- pest or weed control at 500 g/ha (Morningglory [11]; 0.5 kg/ha): 100%
- pest or weed control at 500 g/ha (Green Foxtail [12]; 0.5 kg/ha): 90%
- plant injury at 500 g/ha (Field Corn [13]; 0.5 kg/ha): 100%
- pest or weed control at 500 g/ha (Green Foxtail [14]; 0.5 kg/ha): 100%
- pest or weed control at 500 g/ha (Field Bindweed [15]; 0.5 kg/ha): 100%
- plant injury at 500 g/ha (Field Corn [16]; 0.5 kg/ha): 95%
- plant injury at 500 g/ha (Soybean [17]; 0.5 kg/ha): 95%
- pest or weed control at 500 g/ha (Johnsongrass [18]; 0.5 kg/ha): 80%
- plant injury at 500 g/ha (Cotton [19]; 0.5 kg/ha): 100%
- pest or weed control at 500 g/ha (Field Bindweed [20]; 0.5 kg/ha): 80%
- pest or weed control at 500 g/ha (Barnyardgrass [21]; 0.5 kg/ha): 100%
- pest or weed control at 500 g/ha (Velvetleaf [22]; 0.5 kg/ha): 100%

Compound: CS(=O)(=O)Nc1cc(-n2nnn(CCCF)c2=O)c(Cl)cc1F [Compound 38, 1-[2-Chloro-4-fluoro-5-(N--methylsulfonylamino)phenyl]-4,5-dihydro-4-(3-fluoropropyl)-5H--tetrazol-5-one]
- plant injury at 1000 g/ha (Wheat [1]): 10%
- plant injury at 1000 g/ha (Rice [2]): 40%
- plant injury at 1000 g/ha (Wheat [3]): 50%
- pest or weed control at 1000 g/ha (Velvetleaf [4]): 100%
- plant injury at 1000 g/ha (Cotton [5]): 70%
- pest or weed control at 1000 g/ha (Morningglory [6]): 100%
- pest or weed control at 1000 g/ha (Johnsongrass [7]): 40%
- pest or weed control at 1000 g/ha (Barnyardgrass [8]): 50%
- plant injury at 1000 g/ha (Soybean [9]): 50%
- plant injury at 1000 g/ha (Rice [10]): 20%
- pest or weed control at 1000 g/ha (Morningglory [11]): 100%
- pest or weed control at 1000 g/ha (Green Foxtail [12]): 80%
- plant injury at 1000 g/ha (Field Corn [13]): 10%
- pest or weed control at 1000 g/ha (Green Foxtail [14]): 80%
- pest or weed control at 1000 g/ha (Field Bindweed [15]): 95%
- plant injury at 1000 g/ha (Field Corn [16]): 50%
- plant injury at 1000 g/ha (Soybean [17]): 90%
- pest or weed control at 1000 g/ha (Johnsongrass [18]): 80%
- plant injury at 1000 g/ha (Cotton [19]): 95%
- pest or weed control at 1000 g/ha (Field Bindweed [20]): 100%
- pest or weed control at 1000 g/ha (Barnyardgrass [21]): 80%
- pest or weed control at 1000 g/ha (Velvetleaf [22]): 100%

Reference: patent US4868321A, “Isothiocyanate intermediates” (FMC Corporation, priority 1988, dated 1989)
